Molecular target: T1, human recombinant GPR65 (Homo sapiens, UniProt Q8IYL9)
T1 construct: host or cells: 1321N1 human astrocytoma cells (1321N1-hrGPR65)
Test: Human GPR65 cAMP HTRF antagonist assay
Assay type: cell-based
Details: 1321N1-hrGPR65 cells stimulated at assay pH 7.2; suppression of cAMP rise; read-out: hGPR65 IC50
Experimental: Human GPR65 Cyclic Adenosine Monophosphate (cAMP) Homogeneous Time Resolved Fluorescence (HTRF) Antagonist Assay Procedure
IC50 data was obtained by the following procedure:
1321N1 human astrocytoma cells stably expressing human recombinant GPR65 (1321N1-hrGPR65 cells, EuroscreenFast) were cultured according to the vendor's instructions.
Compounds were tested for their ability to antagonise GPR65, through measuring the concentration of cytoplasmic cAMP following treatment of the cells at a pH of 7.2 to activate GPR65 signalling and addition of the compound to be tested. The extent to which the expected rise in cAMP concentration upon GPR65 activation was suppressed by the added compound is indicative of its potency. The assay was carried out according to EuroscreenFast assay methodology as follows.
On the day of the assay, test compounds were added to 384-well, low volume, white microtiter plates by acoustic dispensing. KRH buffer (5 mM KCl, 1.25 mM MgSO4, 124 mM NaCl, 25 mM HEPES, 13.3 mM Glucose, 1.25 mM KH2PO4 and 1.45 mM CaCl2) was adjusted to pH 6.5, pH 7.6 and pH 8.4 by adding NaOH. 1321N1-hGPR65 cells were rapidly thawed and diluted in KRH, pH 7.6 prior to centrifugation at 300×g for 5 min and resuspension in assay buffer (KRH, pH 7.6, supplemented with 1 mM 3-isobutyl-1-methylxanthine (IBMX) and 200 μM ethylenediaminetetraacetic acid (EDTA)). Cells were added to assay plates at a density of 2,000 cells per well in a volume of 5 μl. Assay plates were briefly centrifuged at 100×g and then incubated at room temperature for 30 min. Cells were stimulated by the addition of 5 μL KRH, pH 6.5, to achieve an assay pH of 7.2, while control wells received 5 μl KRH, pH 8.4 to achieve an assay pH of 7.9. Assay plates were briefly centrifuged at 100×g and then incubated at room temperature for 30 min.
Accumulation of cAMP was detected by cAMP HTRF kit (Cisbio). d2-labeled cAMP and cryptate-labeled anti-cAMP antibody in Lysis and Detection Buffer (Cisbio) were added to assay plates, and the plates were incubated at room temperature for 1 h. HTRF measurements were performed using a Pherastar FSX instrument. Acceptor and donor emission signals were measured at 665 nm and 620 nm, respectively, and HTRF ratios were calculated as signal665 nm/signal620 nm×10^4. Data were normalised to high and low control values and fitted with 4-parameter logistic regression to determine hGPR65 IC50 values for the test compounds, which are shown in Table 1.

T1 sequence (Q8IYL9 whole entry): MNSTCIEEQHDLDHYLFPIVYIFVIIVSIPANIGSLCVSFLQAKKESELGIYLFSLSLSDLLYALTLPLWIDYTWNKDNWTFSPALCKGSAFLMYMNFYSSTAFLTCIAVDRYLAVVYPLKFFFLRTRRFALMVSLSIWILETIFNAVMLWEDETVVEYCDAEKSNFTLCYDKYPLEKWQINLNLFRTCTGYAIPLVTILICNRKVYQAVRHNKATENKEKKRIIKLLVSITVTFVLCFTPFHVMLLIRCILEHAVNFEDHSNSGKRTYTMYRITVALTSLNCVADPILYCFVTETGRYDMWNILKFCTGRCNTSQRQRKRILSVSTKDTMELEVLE

Row | Structure (SMILES) | IC50 [nM]
1 | O=C(Nc1ccc(Cl)c(Cl)c1)N1CCc2c[nH]c(=O)cc2C1 [Compound 99, N-(3,4-Dichlorophenyl)-7-oxo-3,4,6,7-tetrahydro-2,6-naphthyridine-2(1H)-carboxamide] | > 5000
2 | Cn1cc2c(cc1=O)CCN(C(=O)Nc1ccc(Cl)c(Cl)c1)C2 [Compound 92, N-(3,4-Dichlorophenyl)-7-methyl-6-oxo-3,4,6,7-tetrahydro-2,7-naphthyridine-2(1H)-carboxamide] | > 5000
3 | Nc1ccc2c(n1)CCN(C(=O)Nc1ccc(Cl)c(Cl)c1)C2 [Compound 122, 2-Amino-N-(3,4-dichlorophenyl)-7,8-dihydro-1,6-naphthyridine-6(5H)-carboxamide] | > 5000
4 | COc1ccc2c(c1)CN(C(=O)Nc1ccc(Cl)c(C(F)(F)F)c1)CC2 [Compound 62, N-(4-Chloro-3-(trifluoromethyl)phenyl)-7-methoxy-3,4-dihydroisoquinoline-2(1H)-carboxamide] | > 5000
5 | O=C(Nc1ccc(C(F)(F)F)c(Cl)c1)N1CCc2ncccc2C1 [Compound 22, N-(3-Chloro-4-(trifluoromethyl)phenyl)-7,8-dihydro-1,6-naphthyridine-6(5H)-carboxamide] | > 5000
6 | O=C(Nc1ccc(Cl)c(Cl)c1)N1CCc2[nH]c(=O)ccc2C1 [Compound 78, N-(3,4-Dichlorophenyl)-2-oxo-1,5,7,8-tetrahydro-1,6-naphthyridine-6(2H)-carboxamide] | > 5000
7 | Nc1cc2c(cn1)CN(C(=O)Nc1ccc(Cl)c(Cl)c1)CC2 [Compound 84, 6-Amino-N-(3,4-dichlorophenyl)-3,4-dihydro-2,7-naphthyridine-2(1H)-carboxamide] | > 5000
8 | O=C(Nc1ccc(C(F)(F)F)c(Cl)c1)N1CCc2nccnc2C1 [Compound 24, N-(3-Chloro-4-(trifluoromethyl)phenyl)-7,8-dihydropyrido[3,4-b]pyrazine-6(5H)-carboxamide] | > 5000
9 | O=C(Nc1ccc(Cl)c(C(F)(F)F)c1)N1CCc2oncc2C1 [Compound 25, N-(4-Chloro-3-(trifluoromethyl)phenyl)-6,7-dihydroisoxazolo[4,5-c]pyridine-5(4H)-carboxamide] | 500 to 5000
10 | O=C(Nc1ccc(C(F)(F)F)c(Cl)c1)N1CCc2ccc(C(F)(F)F)cc2C1 [Compound 71, N-(3-Chloro-4-(trifluoromethyl)phenyl)-7-(trifluoromethyl)-3,4-dihydroisoquinoline-2(1H)-carboxamide] | 500 to 5000
11 | COc1ccc2c(c1)CN(C(=O)Nc1ccc(Cl)c(Cl)c1)CC2 [Compound 61, N-(3,4-Dichlorophenyl)-7-methoxy-3,4-dihydroisoquinoline-2(1H)-carboxamide] | 500 to 5000
12 | N#Cc1cccc2c1CCN(C(=O)Nc1ccc(Cl)c(C(F)(F)F)c1)C2 [Compound 137, N-(4-Chloro-3-(trifluoromethyl)phenyl)-5-cyano-3,4-dihydroisoquinoline-2(1H)-carboxamide] | 500 to 5000
13 | Cc1cccc2c1CCN(C(=O)Nc1ccc(Cl)c(Cl)c1)C2 [Compound 58, N-(3,4-Dichlorophenyl)-5-methyl-3,4-dihydroisoquinoline-2(1H)-carboxamide] | 500 to 5000

The remaining lines, values ahead:

Row | IC50 [nM] | Structure (SMILES)
14 | 500 to 5000 | COc1cccc2c1CN(C(=O)Nc1ccc(Cl)c(Cl)c1)CC2 [Compound 64, N-(3,4-Dichlorophenyl)-8-methoxy-3,4-dihydroisoquinoline-2(1H)-carboxamide]
15 | < 500 | O=C(Nc1ccc(Cl)c(Cl)c1)N1CCc2cn3cncc3cc2C1 [Compound 117, N-(3,4-Dichlorophenyl)-6,7-dihydroimidazo[1,5-b][2,6]naphthyridine-8(9H)-carboxamide]
16 | < 500 | O=C(Nc1ccc(Cl)c(Cl)c1)N1CCc2cc3nncn3cc2C1 [Compound 109, N-(3,4-Dichlorophenyl)-8,9-dihydro-[1,2,4]triazolo[4,3-b][2,7]naphthyridine-7(6H)-carboxamide]
17 | < 500 | O=C(Nc1ccc(Cl)c(Cl)c1)N1CCc2cc(F)ncc2C1 [Compound 85, N-(3,4-dichlorophenyl)-6-fluoro-3,4-dihydro-2,7-naphthyridine-2(1H)-carboxamide]
18 | 500 to 5000 | O=C(Nc1ccc(Cl)c(Cl)c1)N1CCc2cccc(F)c2C1 [Compound 45, N-(3,4-Dichlorophenyl)-8-fluoro-3,4-dihydroisoquinoline-2(1H)-carboxamide]
19 | 500 to 5000 | O=C(Nc1ccc(C(F)(F)F)c(Cl)c1)N1CCc2cccnc2C1 [Compound 19, N-(3-Chloro-4-(trifluoromethyl)phenyl)-5,8-dihydro-1,7-naphthyridine-7(6H)-carboxamide]
20 | 500 to 5000 | O=C(Nc1ccc(Cl)c(Cl)c1)N1CCc2cccc(Cl)c2C1 [Compound 139, 8-Chloro-N-(3,4-dichlorophenyl)-3,4-dihydroisoquinoline-2(1H)-carboxamide]
21 | < 500 | O=C(Nc1ccc(C(F)(F)F)c(Cl)c1)N1CCc2cc(Cl)ccc2C1 [Compound 54, 6-Chloro-N-(3-chloro-4-(trifluoromethyl)phenyl)-3,4-dihydroisoquinoline-2(1H)-carboxamide]
22 | < 500 | O=C(Nc1cc(Cl)c(Cl)cc1F)N1CCc2cc(=O)[nH]cc2C1 [Compound 112, N-(4,5-Dichloro-2-fluorophenyl)-6-oxo-3,4,6,7-tetrahydro-2,7-naphthyridine-2(1H)-carboxamide]
23 | 500 to 5000 | O=C(Nc1ccc(Cl)c(Cl)c1)N1CCc2nonc2C1 [Compound 101, N-(3,4-Dichlorophenyl)-6,7-dihydro-[1,2,5]oxadiazolo[3,4-c]pyridine-5(4H)-carboxamide]
24 | 500 to 5000 | N#Cc1ccc2c(c1)CCN(C(=O)Nc1ccc(Cl)c(C(F)(F)F)c1)C2 [Compound 38, N-(4-Chloro-3-(trifluoromethyl)phenyl)-6-cyano-3,4-dihydroisoquinoline-2(1H)-carboxamide]
25 | < 500 | COC(=O)c1ccc2c(c1)CCN(C(=O)Nc1ccc(Cl)c(Cl)c1)C2 [Compound 114, Methyl 2-((3,4-dichlorophenyl)carbamoyl)-1,2,3,4-tetrahydroisoquinoline-6-carboxylate]
26 | 500 to 5000 | O=C(Nc1ccc(Cl)c(C(F)(F)F)c1)N1CCc2cc(=O)[nH]cc2C1 [Compound 89, N-(4-chloro-3-(trifluoromethyl)phenyl)-6-oxo-3,4,6,7-tetrahydro-2,7-naphthyridine-2(1H)-carboxamide]
27 | < 500 | O=C(Nc1ccc(C(F)(F)F)c(Cl)c1)N1CCc2c[n+]([O-])ccc2C1 [Compound 79, 6-((3-Chloro-4-(trifluoromethyl)phenyl)carbamoyl)-5,6,7,8-tetrahydro-2,6-naphthyridine 2-oxide]
28 | < 500 | O=C(Nc1ccc(C(F)(F)F)c(Cl)c1)N1CCc2cc(F)ccc2C1 [Compound 44, N-(3-Chloro-4-(trifluoromethyl)phenyl)-6-fluoro-3,4-dihydroisoquinoline-2(1H)-carboxamide]
29 | < 500 | O=C(Nc1ccc(Cl)c(Cl)c1)N1CCc2cc(F)c(F)cc2C1 [Compound 106, N-(3,4-Dichlorophenyl)-6,7-difluoro-3,4-dihydroisoquinoline-2(1H)-carboxamide]
30 | < 500 | O=C(Nc1ccc(C(F)(F)F)c(Cl)c1)N1CCc2cc(F)ncc2C1 [Compound 104, N-(3-chloro-4-(trifluoromethyl)phenyl)-6-fluoro-3,4-dihydro-2,7-naphthyridine-2(1H)-carboxamide]

Reference: US20230174530A1, “N-(PHENYLAMINOCARBONYL) TETRAHYDRO-ISOQUINOLINES AND RELATED COMPOUNDS AS MODULATORS OF GPR65” (PATHIOS THERAPEUTICS LIMITED, priority 2020, published 2023)
